From patent publication US20230242582A1, “NOVEL ALPHA-HELICAL DOUBLE-SIDED CELL PENETRATING PEPTIDE AND USE THEREOF” (CAMP THERAPEUTICS INC., priority 2020, published 2023)
Positions of bridges follow the written chain, without caps; N, C: chain ends. Non-standard residues stand in square brackets, D forms with d. Residues, ends and D or L forms follow the SMILES beside them. Chains are numbered I, II in the order given. tBuAla = CC(C)(C)C[C@H](N)C(=O)O; hCys = N[C@@H](CCS)C(=O)O

Each compound was assayed on HeLa cells (assay: Cytotoxicity of dimeric peptides, WST-1 assay). Conditions: IC50 relative to LK-3, HeLa cells.
Format: cell-based, human
Procedure: Cytotoxicity was identified using WST-1 assay by treating HeLa cells with peptides in a 96-well plate (1×10^4 cells/well) for 24 hours.
Specifically, HeLa cells were cultured in DMEM at a condition of 37° C. with 5% CO2. The cells were respectively cultured in a cell culture plate, and then removed with trypsin. The cells were seeded at 1×10^4 cells per well in a 96-well plate. After 24 hours, the peptide was added to the media, and culture was performed again at a condition of 37° C. with 5% CO2 for 24 hours. 10 uL of WST-1 reagent was added per well, and reaction was allowed to proceed for 30 minutes at a condition of 37° C. with 5% CO2. Then, UV absorbance was measured at 450/700 nm with a 96-well plate reader.

Compound	ratio
CC[C@H](C)[C@H](NC(C)=O)C(=O)N[C@H]1CSSC[C@@H](C(=O)N[C@@H](CCCNC(=N)N)C(N)=O)NC(=O)[C@H]([C@@H](C)CC)NC(=O)[C@H](CCCNC(=N)N)NC(=O)[C@H](CCCNC(=N)N)NC(=O)[C@H]([C@@H](C)CC)NC(=O)[C@H]([C@@H](C)CC)NC(=O)[C@H](CCCNC(=N)N)NC(=O)[C@@H](NC(=O)[C@@H](NC(C)=O)[C@@H](C)CC)CSSC[C@@H](C(=O)N[C@@H](CCCNC(=N)N)C(N)=O)NC(=O)[C@H]([C@@H](C)CC)NC(=O)[C@H](CCCNC(=N)N)NC(=O)[C@H](CCCNC(=N)N)NC(=O)[C@H]([C@@H](C)CC)NC(=O)[C@H]([C@@H](C)CC)NC(=O)[C@H](CCCNC(=N)N)NC1=O [diIR10] (HELM PEPTIDE1{[ac].I.C.R.I.I.R.R.I.C.R.[am]}|PEPTIDE2{[ac].I.C.R.I.I.R.R.I.C.R.[am]}$PEPTIDE1,PEPTIDE2,3:R3-10:R3|PEPTIDE1,PEPTIDE2,10:R3-3:R3$$$V2.0; bridges inferred)	3.24

Same assay, conditions: even at 40 μM, data not shown

Compound	toxicity
diLH10: dimer of monomer LH10, AC-LCHLLHHLCH-NH2 (SEQ ID NO 14) (Ac-LCHLLHHLCH-NH2; also: dimer of two monomers linked by interchain disulfide bonds)	no toxicity was observed

Each compound was assayed on HeLa cells (assay: Cell-penetrating ability of fluorescently labeled dimeric peptides, flow cytometry). Conditions: HeLa cells, flow cytometry, FIG. 4.
Format: cell-based, human
Procedure: During preparation of CPPs in dimeric form shown in Tables 1 to 3, one monomer thereof was prepared in a form where 5-TAMRA fluorescence was attached to the N-terminus, instead of acetyl. A monomer with acetyl and a monomer with 5-TAMRA fluorescence were mixed in a molar ratio of 1:1, and subjected to an oxidation condition in air to produce a dimeric form in which only one fluorescence was labeled per dimer molecule. Then, cell-penetrating ability of each dimer was identified. Each fluorescently labeled peptide was used to treat HeLa cells (5×10^4 cells/well), which are human-derived cells, and a ratio of the number of cells with fluorescence to the total number of cells was obtained through flow cytometry.
FIGS. 4B to 4D illustrate results obtained by treating cells with respective dimers at the same concentration (62.5 nM), measuring fluorescence intensity of the cells by flow cytometry, and relatively comparing the fluorescence intensity.
Based on cell-penetrating ability and cytotoxicity of the dimeric peptides of the present disclosure, correlation therebetween was identified. Cytotoxicity (IC50^−1) and cell-penetrating ability of the respective peptides were identified at 62.5 nM according to the methods described in Examples 5 and 6, and then graphically represented.

Compound	cell-penetrating ability
diLR10^C9Hcy: dimer of monomer LR10^C9Hcy, Ac-LCRLLRRLHcyR-NH2 (SEQ ID NO 43) (Ac-LCRLLRRL[hCys]R-NH2; also: dimer linked by intermolecular disulfides)	best results

Same assay, conditions: at 62.5 nM, FIG. 6A

Compound	ratio of cell-penetrating ability to cytotoxicity (IC50^−1)
CC(=O)N[C@@H](CC(C)(C)C)C(=O)N[C@H]1CSSC[C@@H](C(=O)N[C@@H](CCCCN)C(N)=O)NC(=O)[C@H](CC(C)(C)C)NC(=O)[C@H](CCCCN)NC(=O)[C@H](CCCCN)NC(=O)[C@H](CC(C)(C)C)NC(=O)[C@H](CC(C)(C)C)NC(=O)[C@H](CCCCN)NC(=O)[C@@H](NC(=O)[C@H](CC(C)(C)C)NC(C)=O)CSSC[C@@H](C(=O)N[C@@H](CCCCN)C(N)=O)NC(=O)[C@H](CC(C)(C)C)NC(=O)[C@H](CCCCN)NC(=O)[C@H](CCCCN)NC(=O)[C@H](CC(C)(C)C)NC(=O)[C@H](CC(C)(C)C)NC(=O)[C@H](CCCCN)NC1=O [diNpgK10] (I: Ac-[tBuAla]CK[tBuAla][tBuAla]KK[tBuAla]CK-NH2 / II: Ac-[tBuAla]CK[tBuAla][tBuAla]KK[tBuAla]CK-NH2; disulfide I:2-II:9, I:9-II:2 (inferred))	low toxicity as compared with cell-penetrating ability
CC(=O)N[C@@H](CC(C)(C)C)C(=O)N[C@H]1CSSC[C@@H](C(=O)N[C@@H](CCCNC(=N)N)C(N)=O)NC(=O)[C@H](CC(C)(C)C)NC(=O)[C@H](CCCNC(=N)N)NC(=O)[C@H](CCCNC(=N)N)NC(=O)[C@H](CC(C)(C)C)NC(=O)[C@H](CC(C)(C)C)NC(=O)[C@H](CCCNC(=N)N)NC(=O)[C@@H](NC(=O)[C@H](CC(C)(C)C)NC(C)=O)CSSC[C@@H](C(=O)N[C@@H](CCCNC(=N)N)C(N)=O)NC(=O)[C@H](CC(C)(C)C)NC(=O)[C@H](CCCNC(=N)N)NC(=O)[C@H](CCCNC(=N)N)NC(=O)[C@H](CC(C)(C)C)NC(=O)[C@H](CC(C)(C)C)NC(=O)[C@H](CCCNC(=N)N)NC1=O [diNpgR10] (I: Ac-[tBuAla]CR[tBuAla][tBuAla]RR[tBuAla]CR-NH2 / II: Ac-[tBuAla]CR[tBuAla][tBuAla]RR[tBuAla]CR-NH2; disulfide I:2-II:9, I:9-II:2 (inferred))	low toxicity as compared with cell-penetrating ability
CC[C@H](C)[C@H](NC(C)=O)C(=O)N[C@H]1CSSC[C@@H](C(=O)N[C@@H](CCCNC(=N)N)C(N)=O)NC(=O)[C@H]([C@@H](C)CC)NC(=O)[C@H](CCCNC(=N)N)NC(=O)[C@H](CCCNC(=N)N)NC(=O)[C@H]([C@@H](C)CC)NC(=O)[C@H]([C@@H](C)CC)NC(=O)[C@H](CCCNC(=N)N)NC(=O)[C@@H](NC(=O)[C@@H](NC(C)=O)[C@@H](C)CC)CSSC[C@@H](C(=O)N[C@@H](CCCNC(=N)N)C(N)=O)NC(=O)[C@H]([C@@H](C)CC)NC(=O)[C@H](CCCNC(=N)N)NC(=O)[C@H](CCCNC(=N)N)NC(=O)[C@H]([C@@H](C)CC)NC(=O)[C@H]([C@@H](C)CC)NC(=O)[C@H](CCCNC(=N)N)NC1=O [diIR10] (HELM PEPTIDE1{[ac].I.C.R.I.I.R.R.I.C.R.[am]}|PEPTIDE2{[ac].I.C.R.I.I.R.R.I.C.R.[am]}$PEPTIDE1,PEPTIDE2,3:R3-10:R3|PEPTIDE1,PEPTIDE2,10:R3-3:R3$$$V2.0; bridges inferred)	low toxicity as compared with cell-penetrating ability
